From patent US12059682B2, “Method for isolation and morphological analysis of cells” (EzDiaTech Inc., priority 2018, dated 2024)
Converted amounts (≈) assume the structure as drawn.

Tests used:
[1] = system: Escherichia coli (E. coli) ATCC 25922; assay: Rapid antibiotic susceptibility test with microwell-patterned hydrogel in 96 well plate, time-lapse imaging; type: cell-based
Experimental: (§1) FIG. 2 is a schematic diagram illustrating a technique for dissociating cell colonies into cells at the level of individual cells and continuously observing the morphological changes of the isolated single cells by utilizing a hydrogel structure according to one embodiment of the present disclosure. Referring to (a) of FIG. 2, a conventional 96 well plate is prepared, and thereafter, a dried microwell-patterned hydrogel is inserted into each well. Referring next to (b) of FIG. 2, a cell culture medium containing bacterial cells, nutrients and antibiotics is introduced into each well containing the dry microwell-patterned hydrogel. At the initial stage of introduction, the bottom microwells of the microwell-patterned hydrogel are not yet seated on the base of the well and the microwell-patterned hydrogel is slightly floating. Thus, the bacterial cells are free to move in and out of each microwell pattern.
(§2) Referring to (c) of FIG. 2, several or tens of minutes after the introduction, the microwell-patterned hydrogel swells and approaches the inner wall of the well. As a result, the top of the microwell-patterned hydrogel is in close contact with the inner sidewall of the well and the bottom of the microwell-patterned hydrogel is seated on and remains attached to the base of the well. At this time, the individual bacterial cell entering the space of each bottom microwell pattern of the microwell-patterned hydrogel is not free to move any further in and out of the microwell pattern and is isolated in the microwell-patterned area due to the pressure of the swollen hydrogel. In a state in which the hydrogel is fully expanded, continuous bacterial morphological changes can be observed after several hours by time-lapse imaging through an objective lens of the optical measurement system. As a result, time-lapse images of the individual bacterial cells can be obtained.
(§3) In the case of the Streptomyces atratus (spore-type actinomycetes) cultures, the final cell concentration of the wells was controlled at 7.5×10^7 CFU/mL with tryptic soy broth (TSB, Sparks, MD) and growth was at 28° C. […] After that, 227.5 μL (91% v/v) of Mueller-Hinton broth (MHB, Fluka Analytical), 2.5 μL (1% v/v) of the antibiotics, and 20 μL (8% v/v) of bacterial cells were mixed and growth was monitored at 37° C.
(§4) In this example, the Clinical Laboratory Standard Institute (CLSI) standard strains, Escherichia coli (E. coli) ATCC 25922 and Staphylococcus aureus (S. aureus) ATCC 29213 were tested with various concentrations of ampicillin and chloramphenicol to determine the minimum inhibitory concentration (MIC) values of the antibiotics. […] The cell growth images were recorded every hour for four hours to observe the change in cell number and morphological change to indicate growth.

[2] = system: Staphylococcus aureus (S. aureus) ATCC 29213; assay: as above; type: cell-based
Experimental: as §1, §2, §3, §4

[3] = system: methicillin-resistant Staphylococcus aureus (MRSA); assay: Rapid antibiotic susceptibility test with microwell-patterned hydrogel structures, running time 4 hours; type: cell-based; settings: rapid method, running time 4 hours, read-out: minimum inhibitory concentration (MIC)
Experimental: In the case of the Streptomyces atratus (spore-type actinomycetes) cultures, the final cell concentration of the wells was controlled at 7.5×10^7 CFU/mL with tryptic soy broth (TSB, Sparks, MD) and growth was at 28° C. For the E. coli ATCC 25922, Staphylococcus aureus ATCC 29213, and methicillin resistant Staphylococcus aureus cultures, the initial concentration of bacterial cells injected into each well was set to 3×10^8 CFU/mL with Mueller-Hinton broth (MHB, Fluka Analytical). In order to adjust the concentration of antibiotics, ampicillin (Sigma-Aldrich) and chloramphenicol (Sigma-Aldrich), a two-fold serial dilution method was used. After that, 227.5 μL (91% v/v) of Mueller-Hinton broth (MHB, Fluka Analytical), 2.5 μL (1% v/v) of the antibiotics, and 20 μL (8% v/v) of bacterial cells were mixed and growth was monitored at 37° C.

[4] = system: methicillin-resistant Staphylococcus aureus (MRSA); assay: Conventional antibiotic susceptibility test using turbidity, running time 18-24 hours; type: cell-based; settings: conventional method using turbidity, running time 18-24 hours, read-out: minimum inhibitory concentration (MIC)
From the text: Although numerous AST approaches have been studied, molecular and cell culturing systems are typical. The molecular AST method can obtain results quickly, in just a few hours, but can be adopted only in restrictive conditions with analytical equipment such as PCR machine and requires much more research to be used widely in clinical applications. In contrast with the molecular method, the cell culturing system is accurate and most used in the clinical arena, so it is regarded as the standard AST system. The most commonly employed AST process in the cell culturing system is the liquid microdilution method. This traditional AST system requires 18˜24 hours because the liquid microdilution method determines the minimum inhibitory concentration (MIC) of the relevant antibiotics by identifying a change in turbidity of culture wells. The turbidity is indirectly measured by optical density (OD) coming from cell growth, which is proportional to the concentration of the bacterial cells in the culture well. However, the OD evaluation is not sensitive to the bacterial cell population expansion when the concentration of the bacterial cells is conspicuously low. Thus, it needs 18-24 hours to accurately distinguish whether the bacterial cells grow or not under particular concentrations of antibiotics.

E. coli ATCC 25922 = settings: cited from earlier work
S. aureus ATCC 29213 = settings: cited from earlier work

| SMILES | concentration at which cells could not divide and showed filamentary growth ([1]; E. coli, optical microscopic images, FIG. 8 (a)) | concentration at which bacterial cells could not divide or grow ([2]; S. aureus, optical microscopic images, FIG. 8 (b)) | MIC [3] | MIC [4] | CLSI minimum inhibitory concentration (MIC) range (E. coli ATCC 25922) | CLSI minimum inhibitory concentration (MIC) range (S. aureus ATCC 29213) | MIC ([1]; Escherichia coli, ATCC25922, 4 h, E. coli ATCC 25922, hydrogel device, images every hour for four hours, 37° C., read-out: minimum inhibitory concentration (MIC)) | MIC ([2]; Staphylococcus aureus, ATCC29213, 4 h, S. aureus ATCC 29213, hydrogel device, images every hour for four hours, 37° C., read-out: minimum inhibitory concentration (MIC)) |
| --- | --- | --- | --- | --- | --- | --- | --- | --- |
| CC1(C)S[C@@H]2[C@H](NC(=O)[C@H](N)c3ccccc3)C(=O)N2[C@H]1C(=O)O [ampicillin] | ≥ 2 µg/mL | ≥ 2 µg/mL | 64 µg/mL (≈ 183 µM) | 64 µg/mL (≈ 183 µM) | 2 to 8 µg/mL | 0.5 to 2 µg/mL |  |  |
| O=C(N[C@H](CO)[C@H](O)c1ccc([N+](=O)[O-])cc1)C(Cl)Cl [chloramphenicol] |  |  |  |  | 2 to 8 µg/mL | 2 to 8 µg/mL | 8 µg/mL (≈ 24.8 µM) | 4 µg/mL (≈ 12.4 µM) |
